Changes are numbered by the printed parent chain. Numbers in names are those of the source.

In series [1] the target is AcrB (Escherichia coli, UniProt P31224, V340A). As to the kind of experiment: ITC. The series is classed as binding.
Series [2] has as its target AcrB (Escherichia coli, UniProt P31224, I27A). As to the kind of experiment: ITC. The series is classed as binding.
Series [3] addresses AcrB (Escherichia coli, UniProt P31224). As to the kind of experiment: ITC. The series is classed as binding.
Series [4] addresses AcrB (Escherichia coli, UniProt P31224, N298A). As to the kind of experiment: ITC. The series is classed as binding.
The series “crystal structure” concerns the molecule itself. As to the kind of experiment: crystal structure.

Sequence of AcrB (Escherichia coli, UniProt P31224) (P31224 whole entry): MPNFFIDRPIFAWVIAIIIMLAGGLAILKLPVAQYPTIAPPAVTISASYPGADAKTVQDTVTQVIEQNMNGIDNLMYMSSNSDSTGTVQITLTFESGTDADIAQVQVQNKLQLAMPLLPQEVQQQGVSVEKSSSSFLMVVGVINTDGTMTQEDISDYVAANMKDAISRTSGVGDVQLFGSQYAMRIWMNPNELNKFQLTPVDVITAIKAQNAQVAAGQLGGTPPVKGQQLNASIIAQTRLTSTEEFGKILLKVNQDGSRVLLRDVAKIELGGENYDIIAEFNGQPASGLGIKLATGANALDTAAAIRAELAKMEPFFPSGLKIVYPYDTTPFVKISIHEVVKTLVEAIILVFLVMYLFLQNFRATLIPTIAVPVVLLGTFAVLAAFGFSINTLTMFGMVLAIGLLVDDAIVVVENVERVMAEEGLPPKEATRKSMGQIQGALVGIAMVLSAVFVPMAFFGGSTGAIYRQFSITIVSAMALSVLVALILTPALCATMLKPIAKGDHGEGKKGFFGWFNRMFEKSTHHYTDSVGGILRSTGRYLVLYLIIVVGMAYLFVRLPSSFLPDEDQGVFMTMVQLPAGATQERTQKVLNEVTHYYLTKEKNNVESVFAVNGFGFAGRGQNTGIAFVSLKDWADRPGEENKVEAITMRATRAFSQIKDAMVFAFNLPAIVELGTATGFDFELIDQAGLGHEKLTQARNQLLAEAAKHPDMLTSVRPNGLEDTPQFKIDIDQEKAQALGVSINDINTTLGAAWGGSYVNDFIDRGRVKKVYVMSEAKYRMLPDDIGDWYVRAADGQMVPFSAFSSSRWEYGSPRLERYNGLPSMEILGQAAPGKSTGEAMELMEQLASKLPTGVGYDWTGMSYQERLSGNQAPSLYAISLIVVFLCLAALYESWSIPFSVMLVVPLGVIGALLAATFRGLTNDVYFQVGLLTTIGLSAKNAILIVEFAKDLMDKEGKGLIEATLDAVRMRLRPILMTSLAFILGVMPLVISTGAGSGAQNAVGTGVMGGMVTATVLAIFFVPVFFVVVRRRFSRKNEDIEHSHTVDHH
Sequence of AcrB (Escherichia coli, UniProt P31224, V340A) (P31224 whole entry V340A): as the sequence (P31224 whole entry) above, with V340A counted along it
Sequence of AcrB (Escherichia coli, UniProt P31224, I27A) (P31224 whole entry I27A): as the sequence (P31224 whole entry) above, with I27A counted along it

The term Kd denotes the equilibrium constant for the complex coming apart. Higher therefore signals weaker binding. As to `CC(=O)O[C@H]1C[C@@]2(C)[C@@H](C[C@@H](O)[C@H]3[C@@]4(C)CC[C@@H](O)[C@@H](C)[C@@H]4CC[C@@]32C)/C1=C(\CCC=C(C)C)C(=O)O` [FUA, fusidic acid], the dissociation constant (Kd) came to 826.5 ± 4.8 µM at AcrB [1], 405 ± 6.6 µM on AcrB [2], 528 ± 8.6 µM on AcrB [3] and 1120 ± 18.2 µM at AcrB [4].

B1: AcrB-N298A (natural protein)
chain: MPNFFIDRPIFAWVIAIIIMLAGGLAILKLPVAQYPTIAPPAVTISASYPGADAKTVQDTVTQVIEQNMNGIDNLMYMSSNSDSTGTVQITLTFESGTDADIAQVQVQNKLQLAMPLLPQEVQQQGVSVEKSSSSFLMVVGVINTDGTMTQEDISDYVAANMKDAISRTSGVGDVQLFGSQYAMRIWMNPNELNKFQLTPVDVITAIKAQNAQVAAGQLGGTPPVKGQQLNASIIAQTRLTSTEEFGKILLKVNQDGSRVLLRDVAKIELGGENYDIIAEFNGQPASGLGIKLATGAAALDTAAAIRAELAKMEPFFPSGLKIVYPYDTTPFVKISIHEVVKTLVEAIILVFLVMYLFLQNFRATLIPTIAVPVVLLGTFAVLAAFGFSINTLTMFGMVLAIGLLVDDAIVVVENVERVMAEEGLPPKEATRKSMGQIQGALVGIAMVLSAVFVPMAFFGGSTGAIYRQFSITIVSAMALSVLVALILTPALCATMLKPIAKGDHGEGKKGFFGWFNRMFEKSTHHYTDSVGGILRSTGRYLVLYLIIVVGMAYLFVRLPSSFLPDEDQGVFMTMVQLPAGATQERTQKVLNEVTHYYLTKEKNNVESVFAVNGFGFAGRGQNTGIAFVSLKDWADRPGEENKVEAITMRATRAFSQIKDAMVFAFNLPAIVELGTATGFDFELIDQAGLGHEKLTQARNQLLAEAAKHPDMLTSVRPNGLEDTPQFKIDIDQEKAQALGVSINDINTTLGAAWGGSYVNDFIDRGRVKKVYVMSEAKYRMLPDDIGDWYVRAADGQMVPFSAFSSSRWEYGSPRLERYNGLPSMEILGQAAPGKSTGEAMELMEQLASKLPTGVGYDWTGMSYQERLSGNQAPSLYAISLIVVFLCLAALYESWSIPFSVMLVVPLGVIGALLAATFRGLTNDVYFQVGLLTTIGLSAKNAILIVEFAKDLMDKEGKGLIEATLDAVRMRLRPILMTSLAFILGVMPLVISTGAGSGAQNAVGTGVMGGMVTATVLAIFFVPVFFVVVRRRFSRKNEDIEHSHTVDHH
Take B1: the binding result in the series “crystal structure” is “binds”.

B2: AcrB-I27A (natural protein)
chain: B1 chain with I27A, A298N
For the molecule B2, the binding result in the series “crystal structure” is listed as “binds”.

B3: AcrB-V340A (natural protein)
chain: B1 chain with A298N, V340A
Consider B3, for which the binding result in the series “crystal structure” is reported as “binds”.
